Data as given in ChEMBL document CHEMBL2375214, “Evaluation of anti-HCV activity and SAR study of (+)-lycoricidine through targeting of host heat-stress cognate 70 (Hsc70)” (Bioorg Med Chem Lett, 2013).

Key:
[1] = Down regulation of Hsc70 protein expression in Hepatitis C virus-infected human Huh7.5 cells at 1 ug/mL after 24 hrs by Western blotting analysis relative to actin expression; format: functional, cell-based; details: Huh-7
[2] = Down regulation of Hsc70 protein expression in Hepatitis C virus-infected human Huh7.5 cells at 0.1 ug/mL after 24 hrs by Western blotting analysis relative to actin expression; format: functional, cell-based; details: Huh-7
[3] = Down regulation of Hsc70 protein expression in Hepatitis C virus-infected human Huh7.5 cells […] at 0.1 ug/mL after 24 hrs by Western blotting analysis relative to actin expression; format: functional, cell-based; details: Huh-7
[4] = Down regulation of Hsc70 protein expression in Hepatitis C virus-infected human Huh7.5 cells […] at 10 ug/mL after 24 hrs by Western blotting analysis relative to actin expression; format: functional, cell-based; details: Huh-7
[5] = Down regulation of Hsc70 protein expression in Hepatitis C virus-infected human Huh7.5 cells […] at 1 ug/mL after 24 hrs by Western blotting analysis relative to actin expression; format: functional, cell-based; details: Huh-7
[6] = Down regulation of Hsc70 protein expression in Hepatitis C virus-infected human Huh7.5 cells at 100 ug/mL after 24 hrs by Western blotting analysis relative to actin expression; format: functional, cell-based; details: Huh-7
[7] = Down regulation of Hsc70 protein expression in Hepatitis C virus-infected human Huh7.5 cells at 10 ug/mL after 24 hrs by Western blotting analysis relative to actin expression; format: functional, cell-based; details: Huh-7
[8] = Down regulation of Hsc70 protein expression in Hepatitis C virus-infected human Huh7.5 cells […] at 100 ug/mL after 24 hrs by Western blotting analysis relative to actin expression; format: functional, cell-based; details: Huh-7
[9] = system: Hepatitis C virus; assay: Antiviral activity against Hepatitis C virus infected in human Huh7.5 cells after 96 hrs by fluorescence microscopic analysis; format: functional, organism-based, Hepacivirus hominis; details: huh-7
[10] = Cytotoxicity against human Huh7.5 cells treated after 96 hrs by MTT assay; format: cell-based, Huh-7
[11] = system: Hepatitis C virus; assay: Selectivity index, ratio of CC50 for human Huh7.5 cells to EC50 for Hepatitis C virus; format: toxicity, cell-based, Huh-7; details: read-out: Ratio CC50/EC50
[12] = system: Huh-7; assay: Inhibition of Hsc70 mRNA expression in Hepatitis C virus-infected human Huh7.5 cells at 10 ug/mL after 24 hrs by RT-PCR analysis relative to control; format: functional; details: Huh-7, 24 h
[13] = Down regulation of Hsc70 protein expression in Hepatitis C virus-infected human Huh7.5 cells […] at 0.1 ug/mL after 24 hrs by Western blotting analysis relative to control; format: functional, cell-based; set-up: scale not given: the % may be the effect or the level left; details: Huh-7
[14] = Down regulation of Hsc70 protein expression in Hepatitis C virus-infected human Huh7.5 cells at 0.1 ug/mL after 24 hrs by Western blotting analysis relative to control; format: functional, cell-based; details: Huh-7
[15] = system: Huh-7; assay: Inhibition of Hsc70 mRNA expression in Hepatitis C virus-infected human Huh7.5 cells at 100 ug/mL after 24 hrs by RT-PCR analysis relative to control; format: functional; details: Huh-7, 24 h

SMILES	EC50 [9]	CC50 at 96 h [10]	selectivity ratio [11]	further results
O[C@H]1[C@@H]2c3cc4c(cc3CN3CC[C@@H](C[C@H]1O)[C@H]23)OCO4				fold change (FC) [1]: 0.68; fold change (FC) [2]: 1.01; fold change (FC) [3]: 1.2; fold change (FC) [4]: 1.22; fold change (FC) [5]: 1.16; fold change (FC) [6]: 0.67; fold change (FC) [7]: 0.6; fold change (FC) [8]: 0.1
O[C@@H]1[C@H](O)[C@@H](O)C=C2c3cc4c(cc3CN[C@H]21)OCO4	33 µM	> 360 µM	> 10.9	
CC1(C)O[C@@H]2[C@H](O1)[C@@H](OCc1ccccc1)C=C1c3cc4c(cc3C(=O)N(Cc3ccccc3)[C@H]12)OCO4	65 µM	200 µM	3.08	
O[C@@H]1[C@@H](O)C=C2CCN3Cc4cc5c(cc4[C@H]1C23)OCO5 (stereo partly specified)				fold change (FC) [1]: 0.79; fold change (FC) [2]: 0.78; fold change (FC) [3]: 1.86; fold change (FC) [5]: 0.2
C=CCO[C@H]1C=C2c3cc4c(cc3C(=O)N(CC=C)[C@H]2[C@@H]2OC(C)(C)O[C@@H]21)OCO4	40 µM	250 µM	6.25	
CC(=O)O[C@H]1C[C@@H]2c3cc4c(cc3C(=O)N[C@H]2[C@@H]2OC(C)(C)O[C@@H]21)OCO4	89 µM	270 µM	3.03	
O=C1N[C@H]2[C@H](O)[C@H](O)[C@@H](O)C[C@@H]2c2cc3c(cc21)OCO3	0.68 µM	23 µM	33.8	
CCO[C@H]1C=C2c3cc4c(cc3C(=O)N(CC)[C@H]2[C@@H]2OC(C)(C)O[C@@H]21)OCO4	15 µM	180 µM	12	
CC(=O)O[C@@H]1[C@H](OC(C)=O)[C@@H](OC(C)=O)C=C2c3cc4c(cc3C(=O)N[C@H]21)OCO4 [LYCORICIDINE TRIACETATE]	> 0.98 µM	33 µM	< 33.8	
CC1(C)O[C@@H]2[C@H](O1)[C@@H](O[Si](C)(C)C(C)(C)C)C=C1c3cc4c(cc3C(=O)N[C@H]12)OCO4	75 µM	160 µM	2.13	
C=CCO[C@@H]1[C@H](OCC=C)[C@@H](OCC=C)C[C@@H]2c3cc4c(cc3C(=O)N(CC=C)[C@@H]12)OCO4	12 µM	38 µM	3.17	
CCO[C@H]1C[C@@H]2c3cc4c(cc3C(=O)N(CC)[C@H]2[C@@H]2OC(C)(C)O[C@@H]21)OCO4	85 µM	260 µM	3.06	
C=CCO[C@@H]1[C@H](OCC=C)[C@@H](OCC=C)C=C2c3cc4c(cc3C(=O)N(CC=C)[C@H]21)OCO4	74 µM	120 µM	1.62	
CO[C@@H]1[C@H](OC)[C@@H](OC)C[C@@H]2c3cc4c(cc3C(=O)N(C)[C@@H]12)OCO4	54 µM	> 300 µM	> 5.56	
CC1(C)O[C@H]2[C@@H]3NC(=O)c4cc5c(cc4[C@H]3C[C@H](O)[C@H]2O1)OCO5	> 11 µM	280 µM	< 25.5	
CO[C@@H]1[C@H](OC)[C@@H](OC)C=C2c3cc4c(cc3C(=O)N(C)[C@H]21)OCO4	22 µM	180 µM	8.2	
CO[C@H]1C=C2c3cc4c(cc3C(=O)N(C)[C@H]2[C@@H]2OC(C)(C)O[C@@H]21)OCO4	93 µM	280 µM	3.01	
CC1(C)O[C@@H]2[C@H](O1)[C@@H](O)C=C1c3cc4c(cc3C(=O)N[C@H]12)OCO4	11 µM	170 µM	9.09	
O=C1N[C@@H]2C(=C[C@H](O)[C@@H](O)[C@H]2O)c2cc3c(cc21)OCO3	0.55 µM	7.2 µM	12.7	fold change (FC) [2]: 0.72; inhibition at 10 µg/mL [12]: 91.4%; Activity [13]: 6%; fold change (FC) [3]: 0.06; Activity [14]: 28%; inhibition at 100 µg/mL [15]: 83.1%
CC(=O)O[C@H]1C=C2c3cc4c(cc3C(=O)N[C@H]2[C@@H]2OC(C)(C)O[C@@H]21)OCO4	63 µM	> 300 µM	> 4.76	
CO[C@H]1C[C@@H]2c3cc4c(cc3C(=O)N(C)[C@H]2[C@@H]2OC(C)(C)O[C@@H]21)OCO4	92 µM	250 µM	2.17	
CCO[C@@H]1[C@H](OCC)[C@@H](OCC)C=C2c3cc4c(cc3C(=O)N(CC)[C@H]21)OCO4	> 83 µM	252 µM	< 3.01	
CCO[C@@H]1[C@H](OCC)[C@@H](OCC)C[C@@H]2c3cc4c(cc3C(=O)N(CC)[C@@H]12)OCO4	43 µM	> 300 µM	> 6.98	
